Source: patent publication US11938121B2, “Treatment of infections and biofilm formation using a cellulose synthase inhibitor” (Purdue Research Foundation, priority 2020, dated 2024)

Experiments:
Arabidopsis Col-0 = test: Etiolated hypocotyl growth assay; assay type: in vivo, Arabidopsis thaliana; conditions: dark-grown Col-0, dosages examined
Method: To test the inhibitory effects of different chemicals on plant growth, wild-type Arabidopsis Col-0 plants were used. The seeds of plants used for growth assays or live cell imaging were sequentially sterilized with 50% bleach and 75% ethanol. After washing with sterilized water, the seeds were sown on ½-strength Murashige and Skoog (MS) medium supplemented with 3 mg/L of various chemicals. The plants were grown under continuous light of 130 μmol m^−2 s^−1 intensity illuminated by a Philips F25T8/TL841 25-watt bulb at 22° C. To quantify the inhibitory effects of different ES20 active analogs on the root growth of Arabidopsis wildtype, EMS mutants, and transgenic plants expressing mutated AtCESA6 in prc1-1 background, sterilized Col-0, mutants, and transgenic plants seeds were sown on gridded Petri plates containing ½-strength MS medium supplemented with different concentrations of ES20 analogs. The plates were placed in vertical orientation in the growth chamber for root measurement. The plates were scanned using an Epson Perfection V550 scanner after 7 days of growth, and the root lengths of plants were quantified using ImageJ software. […] The Petri dishes were scanned, and hypocotyl length was measured using ImageJ. Transgenic plants expressing fluorescence-tagged PIN2, PIP2a, HDEL, VHA-a1, and GOT1p were as reported previously (Xu and Scheres, Plant Cell, 2005, 17, 525-536).

maize (Zea mays) = test: Maize seedling root growth; assay type: in vivo; conditions: 20 μM
From the text: ES20 has broad spectrum inhibitory effect on the growth of both dicotyledonous and monocotyledonous plants (Huang and Zhang, Plant Signal Behav. 2020, 15, 1780039). We tested whether ES20-1 has stronger inhibitory effect on the growth of monocotyledon plants than ES20. We grew rice (Oryza sativa) and maize (Zea mays) seedlings on the same concentrations of ES20 and ES20-1 and compared their effects on growth.

GFP-CESA6c^P595S = target: T1, GFP-CESA6c^P595S (Arabidopsis thaliana, UniProt Q94JQ6, P595S); test: MST assay with GFP-CESA6c^P595S; assay type: binding
T1 construct: We purified AtCESA6 central cytoplasmic domain carrying missense mutation P595S (CESA6c^P595S); made in house; host or cells: E. coli (inferred from the wild-type CESA6c construct that served as template)
From the text: To obtain the central cytosolic domain of AtCESA6 for the MST assay, we inserted the GFP coding sequence into the SacI and PstI restriction enzyme sites of the pRSF-Duet-1 vector (Huang et al., 2020). The GFP coding sequence was amplified from the pUBN-GFP-DEST vector. The sequence encoding the central cytosolic domain of CESA6 (CESA6c) was amplified from Col-0 cDNA and fused with GFP at the C-terminus. CESA6c construct was used as a template for creating CESA6c^P595S construct by site-directed mutagenesis. Protein purification was performed as previously described (Huang et al., 2020).
MST assays were carried out using a Monolith NT.115 (NanoTemper) machine at the Chemical Genomics Facility at Purdue University. […] The ES20-1 was dissolved in DMSO, and the final concentration of DMSO was 5% (vol/vol). MST standard capillaries were used to load the samples into the MST instrument. Triplicate reactions were performed for each test. The MST data were processed using MO. Affinity Analysis Version 2.3 software.

Cc1ccccc1C(=O)NNC(=S)NC(=O)c1ccccc1 [ES20-1]
hypocotyl growth inhibition compared with ES20 (Arabidopsis Col-0): inhibited hypocotyl growth more strongly than ES20 | maize root growth inhibition (maize (Zea mays); 6-day-old seedlings): could inhibit the root growth | degree of maize root growth inhibition compared with ES20 (maize (Zea mays); same dosage): much stronger than that of the same dosage of ES20 | interaction with CESA6c^P595S (GFP-CESA6c^P595S): interacts
